Values after ≈ are worked out from the molar mass of the structure shown. Read-outs that look alike come from different tables or passages of the source. A value given as a limit tells only on which side of the number the result lay.

As a reminder, the MIC is the smallest concentration in the dilution series that meets the test's criterion for growth inhibition.

Data set [1] relates to C. diff. spore germination. The settings on record: reported in WO2010/062369, Table 3, cited from earlier work.
Data set [2] concerns Clostridium difficile (Clostridioides difficile), Mouse Strain VPI 10463 (ATCC 43255). In words: MIC on Clostridium difficile mouse strain VPI 10463. The format is cell-based. The conditions noted are these: ATCC43255, 48 hours, presence/absence of growth, tested 0.015-250 μM. On the procedure:
Determination of Minimal Inhibitory Concentrations (MICs) of Bile Acid Derivatives on Clostridium difficile (Clostridioides difficile), Mouse Strain VPI 10463 (ATCC 43255)
Concentrations (0.015-250 μM) of test compounds are prepared by serial two-fold dilutions in pre-reduced brain heart infusion (BHI) broth. To each well containing test article, approximately 5×10^5 CFU of bacteria are added and incubated for 48 hours in an anaerobic chamber at 37° C. Following incubation, the MIC of each test article is determined by presence/absence of bacterial growth in each well.

In data set [3] the test system is C. diff. strain VPI 10463 (ATCC-43255) infection. In words: Recurrence model mouse of C. diff. infection. The format is in vivo, C57BL/6 female mice. The conditions noted are these: 30 mg/kg; comparison Example 3 against Example 1 (FIG. 3).
Protocol: The efficacy of compounds in suppressing recurrent C. diff. infection was assessed in C57BL/6 female mice. Mice were made vulnerable to C. diff. infection by administration of a cocktail of antibiotics (1% glucose, kanamycin (0.5 mg/mL), gentamicin (44 μg/mL), colistin (1062.5 U/mL), metronidazole (269 μg/mL), ciprofloxacin (156 μg/mL), ampicillin (100 μg/mL) and vancomycin (56 μg/mL)) in drinking water for a period of 9 days. 3 days prior to C. diff. infection, mice received a single dose of clindamycin (10 mg/kg) in a volume of 0.5 mL by oral gavage. After this antibiotic pre-treatment, mice received a challenge of approximately 4.5 log 10 viable spores of strain VPI 10463 (ATCC-43255) administered by oral gavage (day 0). After that mice received 50 mg/kg vancomycin from day 0 until day 4. Test articles (bile acid) and placebo were administered via oral gavage bid from day 5 through day 11. Efficacy of test articles was assessed by enumeration of survival of test animals over 15 days following C. diff, challenge and by comparison of mortality, disease severity scores and assessment of body weight against placebo treatment.
In data set [4] the test system is Clostridium difficile (Clostridioides difficile), Human Strain R20291, Ribotype RT027. Kind of data set: MIC on Clostridium difficile human strain R20291, ribotype RT027. The class given is cell-based. The conditions noted are these: 16 h incubation, OD600. On the procedure: Determination of Minimal Inhibitory Concentrations (MICs) of Bile Acid Derivatives on Clostridium difficile (Clostridioides difficile), Human Strain R20291, Ribotype RT027, Reference DSMZ (DSM-27147)
All bacterial culturing steps and MIC experiments were performed under anoxic conditions (95% N2, 5% H2) and 37° C. in an incubator model 2002 that was placed in a Type B vinyl anaerobic chamber, both from Coy Laboratories Products. The strains were maintained as frozen stock cultures in Brain-Heart Infusion broth supplemented with […] and 1% (w/v) L-cysteine (BHIS) containing 40% (v/v) glycerine (Carl Roth GmbH, Cat. #3783.1) at −80° C. Brain-heart infusion broth (Sigma Aldrich, Cat. #53286) with the addition of with 5 g/L yeast extract (Carl Roth GmbH, Cat. #2363.5) was prepared according to the manufacturer's instructions. After heat sterilization, 1 g L-cysteine (Sigma Aldrich, Cat. #C7352) was added that was dissolved in 10 mL of distilled water (H2Odd) and filter sterilized. Medium was placed over night into the anaerobic chamber for degassing. For the MIC-assay cryo-preserved strains were streaked out on BBL™ Columbia CNA Agar with 5% Sheep Blood (BD™, Cat. #221352) and grown for 2-3 d. These plates were kept at rt in the anaerobic chamber for up to two weeks for starting fresh liquid cultures. […]

Data set [5] is described as follows: ALT plasma concentration of mice after 5 days administration. The format is in vivo. The conditions noted are these: 500 mg/kg for 5 days, mice (FIG. 1a, 1b); result in words.

With `CC(=O)O[C@@H]1CC[C@@]2(C)[C@H](CC[C@@H]3[C@@H]2CC[C@]2(C)[C@@H]([C@H](C)CCC(=O)O)CC[C@@H]32)C1` [5β-cholanic acid 3α-ol acetate], the “effect on C. diff. spore germination (inhibition of germination)” value in data set [1] is reported as “no effect”; in data set [1] (listed as 3-acetyl-LCA) it was “not present”.
As for `[2H]C1([2H])C[C@@]2(C)[C@H](CC[C@@H]3[C@@H]2CC[C@]2(C)[C@@H]([C@H](C)CCC(=O)O)CC[C@@H]32)C([2H])([2H])[C@H]1O` [Example 2, 2,2,4,4-d4-Isolithocholic Acid], the MIC in data set [2] was 7.8 to 15.6 µM (≈ 2.97 to 5.94 µg/mL).
`[2H]C1([2H])C[C@@]2(C)[C@H](CC[C@@H]3[C@@H]2CC[C@]2(C)[C@@H]([C@H](C)CCC(=O)O)CC[C@@H]32)C([2H])([2H])C1([2H])O` (stereo partly shown) [Example 3, 2,2,3,4,4-d5-Isolithocholic Acid] gave an MIC in data set [2] of 7.8 to 15.6 µM (≈ 2.98 to 5.95 µg/mL). In addition, in data set [3], the “survival of the animals” value came out at 60%.
As for `[2H][C@]1(O)CC[C@@]2(C)[C@H](CC[C@@H]3[C@@H]2CC[C@]2(C)[C@@H]([C@H](C)CCC(=O)O)CC[C@@H]32)C1` [Example 4, 3-d1-Isolithocholic Acid], the MIC in data set [2] turned out to be 15.6 µM (≈ 5.89 µg/mL).
As to `C[C@H](CCC(=O)O)[C@H]1CC[C@H]2[C@@H]3CC[C@H]4C[C@@H](O)CC[C@]4(C)[C@H]3CC[C@]12C` [Example 5, 3β-Hydroxy-5α-cholan-24-oic Acid], the results for the MIC in data set [4] and in data set [2] were 8 µM (≈ 3.01 µg/mL) and 3.9 µM (≈ 1.47 µg/mL), respectively.
As to `C[C@H](CCC(=O)O)[C@H]1CC[C@H]2[C@@H]3CC[C@@H]4C[C@H](O)CC[C@]4(C)[C@H]3CC[C@]12C` [LCA, lithocholic acid], the “ALT-elevation (ALT plasma concentration)” value in data set [5] is “confirm this described liability of ALT-elevation”.
Compound `C[C@H](CCC(=O)O)[C@H]1CC[C@H]2[C@@H]3CC[C@@H]4C[C@@H](O)CC[C@]4(C)[C@H]3C[C@H](O)[C@]12C` [iso-DCA, reference compound] returned an MIC in data set [2] greater than 250 µM.
